Patent US5206252A, “Thiadiazolyl-amino derivatives of benzopyrans and indanes” (American Home Products Corporation, priority 1992, dated 1993)

Test system: Isolated Rat Bladder Strips
Experiment: Inhibition of Contractions in Isolated Rat Bladder Strips (smooth muscle relaxing activity, 15 mM KCl-enhanced contractile activity)
Set-up: species or system Sprague-Dawley rats
Settings: for inhibition at 30 µM: Rattus norvegicus, maximum percentage inhibition of contractile activity, read-out: Inhibition of Force (%) at (X) μM
Text: The smooth muscle relaxing activity of the compounds of this invention was established in accordance with standard pharmaceutically accepted test procedures in representative compounds as follows:
Sprague-Dawley rats (150-200 g) are rendered unconscious by CO2 asphyxiation and then euthanized by cervical dislocation. The bladder is removed into warm (37 deg.C.) physiological salt solution (PSS) of the following composition (mM): NaCl, 118.4; KCl, 4.7; CaCl2, 2.5; […]; NaHCO3, 24.9; KH2 PO4, 1.2; glucose, 11.1; EDTA, 0.023; gassed with […]; pH 7.4. The bladder is opened and then cut into strips 1-2 mm in width and 7-10 mm in length. The strips are subsequently suspended in a 10 ml tissue bath under an initial resting tension of 1.5 g. The strips are held in place by two surgical clips one of which is attached to fixed hook while the other is attached to an isometric force transducer. […] The carbachol is then washed out and the tissue allowed to relax to its resting level of activity. Following an additional 30 minute period of recovery an additional 15 mM KCl are introduced into the tissue bath. This increase in KCl concentration results in a large increase in the amplitude of spontaneous contractions (and initiation of contractions in previously quiescent strips) superimposed upon a small increase in basal tone. Following stabilization of this enhanced level of contractile activity, incremental increases in the concentration of test compound or vehicle are introduced into the tissue bath. Contractile activity is measured for each compound or vehicle concentration during the last min of a 30 min challenge.
Isometric force developed by the bladder strips is measured using a […] to elicit 50% inhibition of pre-drug contractile activity (IC50 concentration) is calculated from this concentration-response curve. The maximum percentage inhibition of contractile activity evoked by a test compound is also recorded for concentrations of test compound<or equal to 30 uM.

IC50 (0.5 h, isolated rat bladder strips, 15 mM KCl, last min of a 30 min challenge, read-out: IC50 (concentration required to elicit 50% inhibition of pre-drug contractile activity)) [µM]	SMILES	inhibition at 30 µM [%]
–	CC1(C)Oc2ccc(OC(F)(F)F)cc2[C@@H](NC2=NS(=O)(=O)N=C2N)[C@@H]1O [Example 2, (-)-(3S,4R)-4-(4-Amino-1,1-dioxo-[1,2,5]thiadiazol-3-ylamino)2,2-dimethyl-6-trifluoromethoxy-chroman-3-ol]	33
4.8	CNC1=NS(=O)(=O)N=C1N[C@@H]1c2cc(OC(F)(F)F)ccc2OC(C)(C)[C@H]1O [Example 3, (-)-(3S,4R)-2,2-Dimethyl-4-(4-methylamino-1,1-dioxo-[1,2,5]-thiadiazol-3-ylamino)-6-trifluoromethoxy-chroman-3-ol]	95
